{"source": "ChEMBL document CHEMBL1123460", "about": "“Synthesis and biochemical properties of 8-amino-6-fluoro-9-beta-D-ribofuranosyl-9H-purine” (J Med Chem, 1986)", "key": {"L1210 [1]": {"test_system": "L1210", "assay": "Compound was evaluated for the cytotoxicity against L1210 cells in presence of coformycin", "assay_type": "functional, cell-based", "conditions": "Mus musculus"}, "L1210 [2]": {"test_system": "L1210", "assay": "Compound was evaluated for the cytotoxicity against L1210 cells in absence of coformycin", "assay_type": "functional, cell-based", "conditions": "Mus musculus"}, "[3]": {"assay": "Compound was evaluated for the apparent Km value.", "assay_type": "ADME"}, "HEp-2": {"test_system": "HEp-2", "assay": "Compound was evaluated for the cytotoxicity against H.Ep.-2 cells.", "assay_type": "functional, cell-based", "conditions": "Homo sapiens"}, "L1210 [4]": {"test_system": "L1210", "assay": "Compound was evaluated for the cytotoxicity against L1210 cells.", "assay_type": "functional, cell-based", "conditions": "Mus musculus"}}, "data": [{"smiles": "OC[C@H]1O[C@@H](n2cnc3c2N=CNC[C@H]3O)C[C@@H]1O", "note": "[PENTOSTATIN]", "values": [{"measurement": "IC50", "setting": "L1210 [1]", "result": 250, "unit": "nM"}, {"measurement": "IC50", "setting": "L1210 [2]", "result": 1900, "unit": "nM"}]}, {"smiles": "Nc1ncnc2c1ncn2[C@@H]1O[C@H](CO)[C@@H](O)[C@H]1O", "note": "[ADENOSINE]", "values": [{"measurement": "Km", "setting": "[3]", "result": 29, "unit": "µM"}]}, {"smiles": "Nc1nc2c(F)ncnc2n1C1O[C@H](CO)[C@@H](O)[C@H]1O", "note": "(stereo partly specified)", "values": [{"measurement": "IC50", "setting": "HEp-2", "result": 1800, "unit": "nM"}, {"measurement": "IC50", "setting": "L1210 [4]", "result": 1900, "unit": "nM"}, {"measurement": "Km", "setting": "[3]", "result": 1000, "unit": "µM"}]}]}
